Test results published in patent US10201558B2, “Compositions of selenoorganic compounds and methods of use thereof” (Alltech, Inc., priority 2014, dated 2019).
Entries after “also recorded” stand apart in the source; their conditions may differ.

What was measured:
Type in all cases: cell-based, human
NICASTRIN [1] = test: Western blot of NICASTRIN protein in IMR-32 cells; details: 150 ppb, 24 hours
Description: (§1) IMR-32 cells were seeded on 6-well plates and then treated with control and various compounds for 6 hours and 24 hours, as described above. After treatments, cells were rinsed with ice-cold PBS and lysed in ice-cold RIPA buffer containing complete proteinase and phosphatase inhibitors (Thermo-Fisher Scientific, Waltham, Mass.) on ice for 30 min Cell lysates were collected using a cell scraper and transfer pipette and then centrifuged at 12000×g for 30 min at 4° C. to remove the DNA pellet and obtain the protein extract. Protein levels in the supernatant of these cell lysates were determined using the Pierce Micro-BCA protein assay kit (Thermo Scientific-Piece Biotechnology, Rockford, Ill.) according to the manufacturer's protocol […]
(§2) Positive signals on the membrane blots were detected using Amersham's enhanced chemiluminescence (ECL) Western Blotting Prime Detection reagents (GE healthcare Lifescience, Pittsburgh, Pa.). Images of these luminescence signals on the membrane blots were captured using the LI-COR Odyssey Fc Image system (Lincoln, Nebr.). […] Protein band densities in the Western blots were determined using the Li—COR Image studio software or NIH ImageJ software, and then normalized by ACTB protein level in each sample. […]

NICASTRIN [2] = test: QRT-PCR of NICASTRIN mRNA in IMR-32 cells (normal, control KD, FOXO4 KD)
Description: (§3) IMR-32 cells were cultured on 12-well plates for 24 hours and then incubated with FOXO4 siRNA lentiviruses (SC-29650V, Santa Cruz) or control siRNA lentiviruses (sc-108080, Santa Cruz) in the presence of Polybrene (5 μg/ml, Santa Cruz) for 24 hours according to the manufacturer's protocol. These lentiviral siRNA-transfected cells were amplified in normal media for 3 days and then incubated with puromycin for 9-14 days to obtain the stable Control KD (stably transfected with the control siRNAs) and FOXO4KD (stably transfected with Foxo4 siRNAs) cells. These control and Foxo4 KD cells were subjected to cell survival, mitochondrial potential and RNA analysis.
(§4) Human IMR-32 cells were seeded on gelatinized 6-well (6.5×10^5 cells/well) or 24-well (1.3×10^5 cells/well) plates. Cells were treated with control (0 ppb) or various compounds for 6 hours or 24 hours. Total RNA from these cells was isolated using Trizol (Invitrogen) according to the manufacturer's protocol, and then incubated with DNase I to remove any potential contaminated genomic DNA. Then RNA samples were subjected to real-time PCR analysis using the Applied-Bioscience's RT kit and predesigned Taqman probes (Invitrogen), as described previously (Lan et al EMBO J 2003). The mRNA levels of UCP1, UCP2, UCP3, SLC25A27 (UCP4), SLC25A14 (UCP5), PSEN1, Nicastrin, GSK3B, MAPK11-14, PPARG, APOE, RCAN1, RCAN1.1, G6PC, INSR, IGF1R and FOXO4 were measured. Three to six samples were analyzed in each treatment group. Data were normalized by Actin B (ACTB) or Glyceraldehyde Phosphate Dehydrogenase (GAPDH) mRNA levels in each sample and are presented as mean±SEM of 3-6 samples.
RNA samples were extracted, purified, and subjected to real-time PCR analysis using Applied-Bioscience's RT kit and Taqman probes (Invitrogen) as described previously in Example 4. Protein samples were also prepared from cell lysates and western blot analysis was performed as previously described in Example 4. Data are presented as mean±SEM of 3 protein samples and 4 RNA samples per group. The relative mRNA and protein expression levels of PSEN1 and NICASTRIN, were measured. All primary antibodies were purchased from Cell Signaling Inc., Beverly, Mass.
(§5) Expression of genes such as Nicastrin and GSK3B (FIGS. 3A, 3C, 3G-3I, 4A, 4F-4H) which are associated with early-onset AD pathogenesis was attenuated by Compound C. […] Therefore, GSK3B and Nicastrin likely are two direct downstream target genes of FOXO4 in neuronal cells in humans.

Total Tau = test: Western blot of Total Tau protein in IMR-32 cells; details: 150 ppb, 24 hours
Description: as §1, §2

GSK3B = test: QRT-PCR of GSK3B mRNA in IMR-32 cells (normal, control KD, FOXO4 KD); details: for GSK3B mRNA levels: IMR-32 cells
Description: as §3, §4, §5

p38 = test: Western blot of total p38 protein in IMR-32 cells; details: 150 ppb, 24 hours
Description: as §1, §2

RCAN1.1 = test: Western blot of RCAN1 (RCAN1.1) protein in IMR-32 cells; details: 150 ppb, 24 hours
Description: as §1, §2
The ability of selenium compounds to regulate RCAN1 expression in IMR-32 cells was also assessed. […]

pAKT = test: Western blot of pAKT in IMR-32 cells; details: 6 hours and 24 hours
Description: as §1, §2

[3] = FOXO4KD cells, 75 ppb and 150 ppb, 24 hours
[4] = control KD cells, 75 ppb and 150 ppb, 24 hours

Row | Structure (SMILES) | NICASTRIN protein levels (NICASTRIN [1]) | NICASTRIN mRNA expression (NICASTRIN [2]; IMR-32 cells, 24 hours) | total Tau protein level (Total Tau) | GSK3B mRNA levels (GSK3B; 150 ppb, 6 hours) | Total p38 protein levels (p38) | RCAN1.1 protein levels (RCAN1.1) | pAKT protein levels (pAKT) | NICASTRIN mRNA expression (NICASTRIN [2]; [3]) | NICASTRIN mRNA expression, dose-response study (NICASTRIN [2]; IMR-32 cells, 150 ppb, 24 hours) | NICASTRIN mRNA expression (NICASTRIN [2]; IMR-32 cells, 6 hours) | NICASTRIN mRNA expression (NICASTRIN [2]; [4]) | GSK3B mRNA expression (GSK3B; [3]) | GSK3B mRNA levels (GSK3B; 75 ppb and 150 ppb, 24 hours) | GSK3B mRNA expression (GSK3B; [4])
1 | C[Se]C[C@H](NC(=O)CC[C@H](N)C(=O)O)C(=O)O [Compound E, γ-L-glutamyl-Se-methyl-L-selenocysteine] | trend towards reduced | stimulated | significantly down-regulated | did not significantly inhibit | not observed; also recorded: not Compound E | not Compound E | not visibly decreased |  |  |  |  |  |  | 
2 | C[Se]C[C@H]1O[C@@H](n2cnc3c(N)ncnc32)C(O)C1O (stereo in doubt) [Compound C, 5′-deoxy-5′-methylselenoadenosine] | significant reduction | significant decrease | did not affect | significantly decreased | visibly decreased; also recorded: statistically significant decrease | decrease | not visibly decreased | not significantly altered | significantly inhibit | trend towards reduced | inhibited | not in FOXO4KD cells | significantly downregulated | attenuated
